What was measured:
Assay in all cases: relative viability (nuclei count vs DMSO), 5 days (fraction); higher = more cells survive
Shikonin + Lapatinib = compound: CC(C)=CC[C@@H](O)C1=CC(=O)c2c(O)ccc(O)c2C1=O [Shikonin] + CS(=O)(=O)CCNCc1ccc(-c2ccc3ncnc(Nc4ccc(OCc5cccc(F)c5)c(Cl)c4)c3c2)o1 [Lapatinib] (partner 2 µM)
Summary of the method: (§1)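 Lung cancer cell lines were seeded in 1536-well plates and dosed by pin tool the next day, with either a single drug or a fixed anchor-drug dose combined with five library-drug doses (not always all listed) spaced in √10 steps. Five days later, one step fixed the cells and stained their nuclei (final 0.05% Triton X-100, 1% formaldehyde, 1 ug/ml Hoechst), and nuclei were counted on 4× images. Relative viability is the nuclei count in treated wells divided by the count in vehicle wells, and each value is the median of duplicate plates.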

Shikonin + Navitoclax = compound: CC(C)=CC[C@@H](O)C1=CC(=O)c2c(O)ccc(O)c2C1=O [Shikonin] + CC1(C)CCC(c2ccc(Cl)cc2)=C(CN2CCN(c3ccc(C(=O)NS(=O)(=O)c4ccc(N[C@H](CCN5CCOCC5)CSc5ccccc5)c(S(=O)(=O)C(F)(F)F)c4)cc3)CC2)C1 [Navitoclax] (partner 0.5 µM)
Summary of the method: as §1

[1] = compound: CC(C)N(CCCNC(=O)Nc1ccc(C(C)(C)C)cc1)C[C@H]1O[C@@H](n2ccc3c(N)ncnc32)[C@H](O)[C@@H]1O + CCNC(=O)c1noc(-c2cc(C(C)C)c(O)cc2O)c1-c1ccc(CN2CCOCC2)cc1 [Luminespib] (partner 0.01 µM)
Summary of the method: as §1

[2] = compound: CC(C)N(CCCNC(=O)Nc1ccc(C(C)(C)C)cc1)C[C@H]1O[C@@H](n2ccc3c(N)ncnc32)[C@H](O)[C@@H]1O + Cc1nc(Nc2ncc(C(=O)Nc3c(C)cccc3Cl)s2)cc(N2CCN(CCO)CC2)n1 [Dasatinib] (partner 0.075 µM)
Summary of the method: as §1

| Cell Line | relative viability (Shikonin + Lapatinib; first compound 0.01 µM) | relative viability (Shikonin + Lapatinib; first compound 0.1 µM) | relative viability (Shikonin + Lapatinib; first compound 0.3162 µM) | relative viability (Shikonin + Lapatinib; first compound 1 µM) | relative viability (Shikonin + Navitoclax; first compound 0.01 µM) | relative viability (Shikonin + Navitoclax; first compound 0.1 µM) | relative viability (Shikonin + Navitoclax; first compound 0.3162 µM) | relative viability (Shikonin + Navitoclax; first compound 1 µM) | relative viability ([1]; first compound 0.08 µM) | relative viability ([1]; first compound 0.253 µM) | relative viability ([1]; first compound 0.8 µM) | relative viability ([1]; first compound 2.53 µM) | relative viability ([1]; first compound 8 µM) | relative viability ([2]; first compound 0.08 µM) | relative viability ([2]; first compound 0.253 µM) | relative viability ([2]; first compound 0.8 µM) | relative viability ([2]; first compound 2.53 µM) | relative viability ([2]; first compound 8 µM) |
| --- | --- | --- | --- | --- | --- | --- | --- | --- | --- | --- | --- | --- | --- | --- | --- | --- | --- | --- |
| HARA | 0.888 | 0.903 | 0.853 | 0.77 | 1.14 | 1.13 | 1.15 | 1.13 | 0.682 | 0.626 | 0.731 | 0.536 | 0.587 | 0.27 | 0.282 | 0.278 | 0.22 | 0.244 |
| PC-3 [JPC-3] | 0.443 | 0.512 | 0.479 | 0.543 | 0.758 | 0.848 | 0.884 | 0.786 | 0.699 | 0.704 | 0.779 | 0.71 | 0.683 | 0.921 | 0.971 | 0.884 | 0.892 | 0.868 |
| NCI-H1755 | 1.13 | 1.27 | 1.12 | 1.09 | 1.04 | 0.988 | 1.14 | 1.07 | 0.553 | 0.53 | 0.367 | 0.43 | 0.349 | 0.373 | 0.44 | 0.418 | 0.428 | 0.429 |
| HCC-78 | 0.778 | 1.07 | 0.705 | 1.06 | 0.718 | 0.964 | 0.942 | 0.841 | – | – | – | – | – | 0.485 | 0.311 | 0.466 | 0.308 | 0.32 |
| IA-LM | 1.11 | – | 0.81 | 0.679 | 0.879 | 0.858 | 0.796 | 0.654 | – | – | – | – | – | – | – | – | – | – |
| NCI-H441 | – | – | – | – | 0.615 | 0.76 | 0.742 | 0.396 | 0.39 | 0.334 | – | 0.278 | 0.368 | 0.718 | 0.535 | – | 0.544 | 0.535 |
| NCI-H322M | 0.582 | 0.595 | 0.585 | 0.566 | 1.23 | 1.21 | 1.32 | 1.27 | 0.92 | 0.759 | 0.889 | 0.76 | 0.913 | 0.278 | 0.266 | 0.264 | 0.24 | 0.284 |
| NCI-H520 | – | 0.813 | 0.884 | 0.923 | – | 1.1 | 1.19 | 1 | 0.22 | 0.219 | 0.239 | 0.221 | 0.232 | 0.186 | 0.145 | 0.151 | 0.293 | 0.229 |
| NCI-H661 | 0.575 | 0.494 | 0.501 | 0.594 | – | – | – | – | 0.936 | 0.966 | 0.947 | 0.975 | 0.957 | 0.875 | 0.787 | 0.892 | 0.885 | 0.821 |
| ChaGo-K-1 | – | – | – | – | 0.882 | 1.4 | 1.01 | 1.44 | 0.583 | 0.552 | 0.47 | 0.683 | 0.643 | 0.532 | 0.672 | 0.556 | 0.552 | 0.497 |
| NCI-H2342 | – | – | – | – | – | – | – | – | 0.856 | 0.576 | 0.722 | 0.675 | 0.724 | 0.336 | 0.29 | 0.289 | 0.321 | 0.277 |
| NCI-H1299 | 1.01 | 1.09 | 0.986 | 0.936 | 1.03 | 1.09 | 1.06 | 1.05 | – | – | – | – | – | – | – | – | – | – |
| SW 900 | – | – | – | – | – | – | – | – | 0.166 | 0.165 | – | 0.185 | 0.19 | 0.74 | 0.542 | – | 0.605 | 0.54 |
| NCI-H650 | 1.01 | – | 0.947 | 1.16 | – | – | – | – | 0.665 | 0.803 | 0.666 | 0.757 | 0.774 | 0.416 | 0.425 | 0.468 | 0.434 | 0.438 |
| NCI-H522 | – | – | – | – | – | – | – | – | 0.949 | 1.2 | 1.05 | 1.1 | 1.22 | 0.888 | 0.839 | 0.896 | 0.839 | 0.809 |
| HCC-366 | 1.34 | 1.24 | 1.11 | 1.03 | 1.08 | 1.06 | 1.09 | 1.08 | – | – | – | – | – | 0.608 | 0.647 | 0.442 | 0.587 | 0.536 |
| A549 | 1.08 | 1.09 | 1.03 | 1.1 | 1.46 | 1.49 | 1.35 | 1.17 | – | – | – | – | – | – | – | – | – | – |
| NCI-H1563 | 0.87 | 1.08 | 0.923 | 0.779 | – | – | – | – | 0.474 | 0.542 | 0.592 | 0.533 | 0.515 | 0.447 | 0.42 | 0.488 | 0.434 | 0.424 |
| ABC-1 | 1.5 | 1.28 | 1.27 | 1.2 | – | – | – | – | 0.676 | 0.802 | – | 0.635 | 0.583 | 0.62 | 0.599 | – | 0.712 | 0.524 |
| LCLC-103H | – | – | – | – | – | – | – | – | 0.765 | 0.944 | 0.883 | 0.926 | 0.93 | 0.435 | 0.424 | 0.449 | 0.428 | 0.443 |
